As a reminder, the inhibition is the relative decrease from the control value, in per cent. The IC50 is the midpoint of a concentration-inhibition curve. Read a low IC50 as greater potency.

Structures are written as SMILES.

In this experiment the target is T1, Human BTK enzyme (Homo sapiens, UniProt Q06187).
T1 construct: Reaction Biology Corporation
Put plainly: BTK inhibitory activity assay at Reaction Biology Corporation, peptide substrate. In kind it is biochemical. To be noted: peptide substrate 20 μM, ATP 10 μM; for inhibition at 0.005 µM: read-out: Inhibition of ALK, IC50 (Inhibitory Activities of examples at 5 nM).

T1 sequence (Q06187 whole entry): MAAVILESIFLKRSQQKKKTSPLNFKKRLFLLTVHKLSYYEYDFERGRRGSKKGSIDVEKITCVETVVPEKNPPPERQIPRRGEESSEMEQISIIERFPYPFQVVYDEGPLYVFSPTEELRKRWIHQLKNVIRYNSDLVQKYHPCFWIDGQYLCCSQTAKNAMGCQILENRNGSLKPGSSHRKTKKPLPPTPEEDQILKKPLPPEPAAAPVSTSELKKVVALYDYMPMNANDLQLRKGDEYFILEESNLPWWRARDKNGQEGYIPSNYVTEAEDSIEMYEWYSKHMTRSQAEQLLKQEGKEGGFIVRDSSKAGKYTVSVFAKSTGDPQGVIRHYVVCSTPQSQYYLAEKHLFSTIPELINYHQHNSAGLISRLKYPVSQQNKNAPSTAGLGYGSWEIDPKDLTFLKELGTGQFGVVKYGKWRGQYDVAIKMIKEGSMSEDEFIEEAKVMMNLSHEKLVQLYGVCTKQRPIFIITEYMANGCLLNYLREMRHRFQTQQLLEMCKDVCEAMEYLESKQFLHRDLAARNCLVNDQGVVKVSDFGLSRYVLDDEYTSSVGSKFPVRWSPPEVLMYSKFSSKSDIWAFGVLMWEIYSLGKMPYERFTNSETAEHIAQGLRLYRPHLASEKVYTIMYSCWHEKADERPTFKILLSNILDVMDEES

For the compound `C=CC(=O)N1CC2(CCC(n3nc(-c4ccc(Oc5ccccc5)cc4)c4c(N)ncnc43)CC2)C1` [Example 3, 1-(7-(4-amino-3-(4-phenoxyphenyl)-1H-pyrazolo[3,4-d]pyrimidin-1-yl)-2-azaspiro[3.5]nonan-2-yl)prop-2-en-1-one], the inhibition at 0.005 µM (compound at 5 nM) stood at 96.4%. On the same count and under the same terms, next, `C=CC(=O)N1CCC2(CC1)CC(n1nc(-c3ccc(Oc4ccccc4)cc3)c3c(N)ncnc31)C2` [Example 2, 1-(2-(4-amino-3-(4-phenoxyphenyl)-1H-pyrazolo[3,4-d]pyrimidin-1-yl)-7-azaspiro[3.5]nonan-7-yl)prop-2-en-1-one]: 80.1%.

Regarding `C=CC(=O)N1CC2(CC(n3nc(-c4ccc(Oc5ccccc5)cc4)c4c(N)ncnc43)C2)C1` [Example 1, 1-(6-(4-Amino-3-(4-phenoxyphenyl)-1H-pyrazolo[3,4-d]pyrimidin-1-yl)-2-azaspiro[3.3]heptan-2-yl)prop-2-en-1-one], the IC50 is 1.48 nM. In addition, where the note is “compound at 5 nM”, the inhibition at 0.005 µM is 98.5%.

Turning to `C=CC(=O)N1CCCC2(CC(n3nc(-c4ccc(Oc5ccccc5)cc4)c4c(N)ncnc43)C2)C1` (stereo not drawn) [Example 4A, 1-(2-(4-amino-3-(4-phenoxyphenyl)-1H-pyrazolo[3,4-d]pyrimidin-1-yl)-6-azaspiro[3.5]nonan-6-yl)prop-2-en-1-one], the inhibition at 0.005 µM (compound at 5 nM) was found to be 85.7%.

Consider `C=CC(=O)N1CCCC2(CC(n3nc(-c4ccc(Oc5ccccc5)cc4)c4c(N)ncnc43)C2)C1` (stereo not drawn) [Example 4B, 1-(2-(4-amino-3-(4-phenoxyphenyl)-1H-pyrazolo[3,4-d]pyrimidin-1-yl)-6-azaspiro[3.5]nonan-6-yl)prop-2-en-1-one], for which the “percent inhibition of BTK at 5 nM” value (compound at 5 nM) is 97.9%.

(Values after patent US9458162B2, “Cyclic molecules as bruton's tyrosine kinase inhibitors” (Nanjing Allgen Pharma Co. Ltd., priority 2012, dated 2016).)
